Source: patent EP0232423A1, “CIRCULATION IMPROVING AGENT” (GRELAN PHARMACEUTICAL CO., LTD., priority 1985, dated 1987)

What was measured:
Acute toxicity (LD50) = conditions: mouse, in vivo, mice
ddY male mice [1] = experiment: Thromboembolic respiratory depression induced by ADP; assay type: in vivo; conditions: 30 mg/kg oral, ADP 40 mg/kg i.v., Compound (I) = erythro form
Experimental: The degree of formation of platelet thrombi in the pulmonary vessels of mice induced by intravenous administration of ADP can be measured based on the decrease in the respiratory rate. The anti-platelet thrombotic action of test drugs can be evaluated by using this decrease in the respiratory rate as a standard. […] Relative respiratory rate (%) was calculated according to the following formula. [formula] (cf. "Thrombosis Research", Vol. 35, Page 311, 1984)

mice = experiment: Protective action on death caused by endotoxin shock; assay type: in vivo; conditions: for Number of survival after administration of endotoxin: of 15 (Compound (I)) or 14 (ifenprodil) animals
Text: Compound (I) and ifenprodil tartrate were orally administered to mice and the protective action on death due to endotoxin shock was examined in accordance with a known method (Folia pharmacol. japon, vol. 86, page 17, 1985). The control group was drug-untreated.

platelets of rabbit = experiment: Fluidity of platelet membrane (fluorescence polarization); assay type: cell-based; parameters: Fluorescence polarization: unit not given here; conditions: fluidity increases as value decreases
Text: The activity of compound (I) (lactate) and ifenprodil tartrate against the fluidity of platelet membrane was examined according to a known method (Biochimica et Biophysica Acta, vol. 798, page 210, 1984) using platelets of rabbit and using n-butyl alcohol as a positive control.

α1-adrenoceptor = experiment: Antagonism of phenylephrine (α1-agonist) contraction in saphenous vein; assay type: cell-based, Mongrel dogs; conditions: compared by pA2 value
Text: (§1) In this experiment, phenylephrine and clonidine were used as al-agonist and a2-agonist, respectively, and these agonists were cumulatively applied to obtain a dose-response curve.

α2-adrenoceptor = experiment: Antagonism of clonidine (α2-agonist) contraction in saphenous vein; assay type: cell-based, Mongrel dogs; conditions: clonidine
Text: as §1

ddY male mice [2] = experiment: Ameliorative activity against damage of cerebral hypoxia (reduced pressure); assay type: in vivo; conditions: i.p.; 30 mg/kg compound (I) and ifenprodil tartrate, 16 mg/kg phentolamine
Experimental: Thirty mg/kg each of compound (I) (lactate) and ifenprodil tartrate and 16 mg/kg of phentolamine, which is an a-adrenoceptor blocker, were intraperitoneally administered to ddY male mice, respectively. […] Time from start of reduction of pressure until stop of respiration in the mice was measured. The control group was drug-untreated.

male mice [3] = experiment: Isoproterenol-induced tachycardia; assay type: in vivo; conditions: 25 mg/kg oral, 30 minutes before 0.01 mg/kg isoproterenol i.v.; three male mice
Experimental: 25 mg/kg of compound (I) was orally administered to three male mice. After 30 minutes from administration, 0.01 mg/kg of isoproterenol, which is a β-agonist, was intravenously administered, and the effect of compound (I) on tachycardia induced by isoproterenol was observed. The control group was compound (I) - untreated.

male mice [4] = experiment: Serum total cholesterol and β-lipoprotein in mice fed high cholesterol food; assay type: in vivo; conditions: 200 mg/kg oral on 6th and 7th day, high cholesterol food 7 days, three male mice
Experimental: Three male mice were fed high cholesterol food for 7 days and 200 mg/kg of compound (I) was orally administered on the 6th day and the 7th day. After a fast over night from the 7th day, measurements of the total cholesterol in serum (Abell et al, "Standard Method of Clinical Chemistry", vol. 2, page 26, […], published by Academic Press; Kanai et al, "[…]", vol. 7, page 64, 1978, published by Kanehara Shuppan) and the amount of β-lipoprotein (Fried-Hoeflmayer, Klin. Wschr., vol. 41, page 246, 1963; Kanai et al, "Rinsho Kensaho Teiyo", vol. 7, page 79, 1978, published by Kanehara Shuppan) were conducted. The control group was compound (I)-untreated.

CC(C(O)c1ccc(OCc2ccccc2)cc1)N1CCC(Cc2ccccc2)CC1 (stereo not drawn) [Compound (I), 2-(4-benzylpiperidino)-l-(4-benzyloxyphenyl)propan-l-ol]
LD50 (Acute toxicity (LD50); iv, venous injection): > 70 mg/kg | LD50 (Acute toxicity (LD50); oral): > 1200 mg/kg | Relative respiratory rate (%) (ddY male mice [1]; 1/3 hr after administration): 53.1 ±11.7 (n=7) % | Relative respiratory rate (%) (ddY male mice [1]; 1 hr after administration): 51.2 ±5.6 (n=10) % | Relative respiratory rate (%) (ddY male mice [1]; 2 hr after administration): 52.8 ±7.4 (n=10) % | Relative respiratory rate (%) (ddY male mice [1]; 3 hr after administration): 49.0 ±8.4(*) (n=9) % | Relative respiratory rate (%) (ddY male mice [1]; 5 hr after administration): 41.9 ±11.5 (n=8) % | Number of survival after administration of endotoxin (mice; 70 mg/kg oral, 18 hr): 12 | Number of survival after administration of endotoxin (mice; 70 mg/kg oral, 20 hr): 9 | Number of survival after administration of endotoxin (mice; 70 mg/kg oral, 22 hr): 8 | Number of survival after administration of endotoxin (mice; 70 mg/kg oral, 24 hr): 5 | Number of survival after administration of endotoxin (mice; 70 mg/kg oral, 48 hr): 1 | Number of survival after administration of endotoxin (mice; 200 mg/kg oral, 18 hr): 13 | Number of survival after administration of endotoxin (mice; 200 mg/kg oral, 20 hr): 13 | Number of survival after administration of endotoxin (mice; 200 mg/kg oral, 22 hr): 10 | Number of survival after administration of endotoxin (mice; 200 mg/kg oral, 24 hr): 7 | Number of survival after administration of endotoxin (mice; 200 mg/kg oral, 48 hr): 5 | protective action on the death (endotoxin shock) (mice; oral, mice, compound (I) at 200 mg/kg): remarkable protective action on the death | Fluorescence polarization (platelets of rabbit; 1 µM): 2±4 | Fluorescence polarization (platelets of rabbit; 10 µM): 0±8 | Fluorescence polarization (platelets of rabbit; 30 µM): -2±0 | Fluorescence polarization (platelets of rabbit; 100 µM): -22±7 | competitive antagonism on the α1-agonist relative to that of ifenprodil (α1-adrenoceptor): about 1/15 | competitive antagonism on the α1-agonist relative to that of prazosin (α1-adrenoceptor): about 1/8 | antagonism on the α2-agonist (α2-adrenoceptor; concentration of 10^-5 M): non- competitive antagonism | antagonism on the α2-agonist (α2-adrenoceptor; concentration of 10^-6 M): No competitive antagonism is recognized | effect on survival time (cerebral hypoxia) (ddY male mice [2]): markedly prolongs survival time | Inhibition % of isoproterenol-induced tachycardia (male mice [3]): 23% | Reduction % as compared with control group Total cholesterol (male mice [4]; serum): 8% | Reduction % as compared with control group β-lipoprotein (male mice [4]): 18%
